Results: paper PMC10287695, “Non-covalent inhibitors of thioredoxin glutathione reductase with schistosomicidal activity in vivo” (Nature Communications, 2023)
Where “and” joins values, the source holds several entries; their conditions need not be identical. Identical values can stand only once.

Experiments:
TGR [1] = target: T1, TGR (Schistosoma mansoni, UniProt Q962Y6); assay: Reversibility by jump dilution; type: biochemical; settings: for % Activity (ID list), D0 / % Inhibition (ID list), D0: D0: diluted 1:100, activity determined immediately; for % Activity (ID list), D60 / % Inhibition (ID list), D60: D60: diluted 1:100, activity determined after 60 min; for Inhibitor (rate), 0 min / % Activity, 0 min: [0, D0]: 15 min preincubation inhibitor + TGR + NADPH, diluted 1:100, then activity determined immediately; for Inhibitor (rate), 0 min / Inhibitor (rate), 60 min / Inhibitor (rate), -15: raw rate; for % Activity, 0 min / % Activity, 60 min / % Activity, -15: relative to DMSO; for Inhibitor (rate), 60 min / % Activity, 60 min: [60, D60]: 15 min preincubation inhibitor + TGR + NADPH, diluted 1:100, then activity determined after 60 min; for Inhibitor (rate), -15 / % Activity, -15: [-15]: 15 min preincubation inhibitor + TGR + NADPH, then activity determined, replicates
T1 construct: made in house
T1 sequence (Q962Y6 1-598): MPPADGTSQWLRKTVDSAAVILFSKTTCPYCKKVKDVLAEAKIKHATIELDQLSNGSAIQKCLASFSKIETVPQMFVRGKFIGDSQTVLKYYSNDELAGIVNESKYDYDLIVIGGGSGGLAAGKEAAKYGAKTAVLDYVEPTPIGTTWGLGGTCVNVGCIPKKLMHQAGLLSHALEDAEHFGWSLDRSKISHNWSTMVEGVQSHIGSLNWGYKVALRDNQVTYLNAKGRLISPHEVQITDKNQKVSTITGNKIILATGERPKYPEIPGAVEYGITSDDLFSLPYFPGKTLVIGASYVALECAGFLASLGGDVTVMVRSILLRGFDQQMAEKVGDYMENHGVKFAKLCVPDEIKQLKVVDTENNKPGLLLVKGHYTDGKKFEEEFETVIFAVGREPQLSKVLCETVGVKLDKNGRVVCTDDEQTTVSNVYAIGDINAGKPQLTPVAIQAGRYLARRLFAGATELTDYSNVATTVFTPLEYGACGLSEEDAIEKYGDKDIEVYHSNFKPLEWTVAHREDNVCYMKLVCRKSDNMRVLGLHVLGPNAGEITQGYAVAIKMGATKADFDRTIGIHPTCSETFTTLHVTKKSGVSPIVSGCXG
Protocol: A reaction of 370 nM TGR, 100 µM NADPH, and 250 µM inhibitor was incubated for 15 min at room temperature. A 100x dilution of the reaction was made and the activity was determined immediately and after 60 min.

TGR [2] = target: T1, TGR; assay: NADPH dependence of inhibition; type: biochemical; set-up: unit not given here; settings: panel b, replicates; for Rate, no NADPH: preincubation no NADPH; for Rate, with NADPH: preincubation with NADPH
Protocol: TGR was incubated at room temperature with inhibitor in the presence or absence of 100 µM NADPH for 15 min. DTNB (3 mM) and NADPH (100 µM) were added, and the reaction was monitored at A412 for 5 min to determine reaction rate. The assay was done in triplicate.

TGR [3] = target: T1, TGR; assay: Time dependence of inhibition; type: biochemical; settings: panel c, replicates; for TGR activity relative to dmso, time 0: time 0 (time unit not given); for TGR activity relative to dmso, time 5: time 5 (time unit not given); for TGR activity relative to dmso, time 10: time 10 (time unit not given); for TGR activity relative to dmso, time 15: time 15 (time unit not given); for TGR activity relative to dmso, time 30: time 30 (time unit not given)
Protocol: TGR was incubated at room temperature (up to 6 h) and at 4 °C for 6 to 24 h with 50 µM inhibitor and 100 µM NADPH for the indicated times. Then DTNB (3 mM) and NADPH (100 µM) were added, and the reaction was monitored at A412 for 5 min. The assay was done in triplicate.

TGR [4] = target: T2, TGR (Schistosoma mansoni, UniProt Q962Y6, X597U); assay: NADPH consumption (oxidase activity); type: biochemical, S. mansoni; settings: replicates
T2 construct: made in house
Procedure, shortened: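 Enzyme (500 nM) preincubated 30 min with compound (TRi-1, Stattic 50 µM; AF 20 µM) and 100 µM NADPH, desalted, then mixed with 100 µM NADPH; NADPH consumption read at 340 nm. Other compounds (50 µM) run without desalting, preincubation 30 min or 2 h.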

TGR [5] = target: T1, TGR; assay: Thermal shift assay (TSA); type: binding; set-up: key to Avg. Tm / Tm, replicate 1-3: Tm in °C, from a 25–95 °C melt curve
Protocol: Samples were prepared by using a final concentration of 0.25 mg/ml TGR diluted in TGR reaction buffer to the desired volume. To evaluate reduced TGR, 500 µM NADPH was added. […] After the preincubation period, 20 µL samples were pipetted into a BioRad un-skirted PCR 96 well plate and sealed with MicroAmp^TM Optical Adhesive film. The plate was then centrifuged for 5 min at 1000 × g. TSA was carried out using a BioRad CFX Connect qPCR instrument with a melt curve setting of 25 − 95 °C, in increments of 0.5 °C/10 seconds. The SYBR green channel was used to detect fluorescence as the wavelength of flavin fluorescence overlaps with that of SYBR green. BioRad CFX Maestro 5.2 was used to analyze TSA data.

S. japonicum adult worms = assay: Schistosomicidal activity ex vivo, S. japonicum adult worms; type: cell-based
Protocol: Three-week old, female Swiss-Webster mice obtained from the Charles River were housed in the Comparative Research Center of Rush University Medical Center. Mice were infected by percutaneous tail exposure to about 200 S. mansoni or 50 S. japonicum cercaria for adult worms and about 1000 cercaria for juvenile S. mansoni worms through natural transdermal penetration of the cercariae for 1 h[81].
DMSO formulated compounds were diluted with phenol red free M199 medium or RPMI medium for NTS or juvenile and adult worms, respectively, at <1% DMSO final concentrations. NTS, juvenile and adult worms from overnight cultures were tested against compounds in triplicate. Controls were treated with DMSO alone or 5 µM AF as a positive control in appropriate medium. […] Schistosome viabilities in the presence of the compounds were assessed using this formula: % Viability = Averages of Test / Averages of DMSO Control x 100.

[6] = before dilution (-15), list for plotting

Row | Structure (SMILES) | % Activity (ID list), D0 (TGR [1]; list for plotting) | % Inhibition (ID list), D0 (TGR [1]; list for plotting) | % Activity (ID list), D60 (TGR [1]; list for plotting) | % Inhibition (ID list), D60 (TGR [1]; list for plotting) | Inhibitor (rate), 0 min (TGR [1]) | % Activity, 0 min (TGR [1]) | Inhibitor (rate), 60 min (TGR [1]) | % Activity, 60 min (TGR [1]) | Inhibitor (rate), -15 (TGR [1]) | % Activity, -15 (TGR [1]) | % Inhibition (ID list) (TGR [1]; [6]) | Rate, no NADPH (TGR [2]) | Rate, with NADPH (TGR [2]) | TGR activity relative to dmso, time 0 (TGR [3]) | TGR activity relative to dmso, time 5 (TGR [3]) | TGR activity relative to dmso, time 10 (TGR [3]) | TGR activity relative to dmso, time 15 (TGR [3]) | TGR activity relative to dmso, time 30 (TGR [3]) | other results
1 | C#CCN(Cc1nc(-c2ccccc2)oc1C)[C@@H]1C[C@@H]2C[C@H]([C@H]1C)C2(C)C [Compound 6] | 75.6% and 75.7% and 80.1% | 24.4% and 24.3% and 19.9% | 78.0% and 78.9% and 78.3% | 22.0% and 21.1% and 21.7% | 0.03741 and 0.03869 and 0.04167 | 75.6216% and 75.6995% and 80.0576% | 0.03652 and 0.03852 and 0.03804 | 78.0175% and 78.8698% and 78.3361% | 0.0007205 and 0.001179 and -0.0005968 | 1.808% and 2.913% and -1.39% | 98.2% and 97.1% and 101.4% | 0.02684 and 0.02786 and 0.03567 | 0.00166 and 0.0006764 and 0.001495 | 3.265 and 0.9012 | 0.7526 and -0.07048 and -0.5247 | 0.5708 and -0.4368 and -0.3757 | 0.7215 and 0.1963 and -0.1983 | 2.551 and 1.111 and 1.493 | % Activity (ID list) (TGR [1]; [6]): 2.9% and -1.4%; NADPH consumption (rate/ΔOD340) (TGR [4]): -0.0004895 and -0.0006543 and -0.0006565
2 | C[C@@H]1[C@H]2C[C@@H](C[C@H]1NCc1nc3ccccc3n1C1CCCCCC1)C2(C)C [Compound 8] | 90.8% and 93.4% and 92.5% | 9.2% and 6.6% and 7.5% | 93.9% and 90.9% and 93.8% | 6.1% and 9.1% and 6.2% | 0.05404 and 0.05709 and 0.05725 | 90.8083% and 93.3911% and 92.5327% | 0.05102 and 0.05246 and 0.05311 | 93.9422% and 90.9343% and 93.8339% | 0.005946 and 0.01664 and 0.01823 | 12.3643% and 34.0704% and 37.3107% | 77.7% and 75.9% and 68.7% | 0.045 and 0.0455 | 0.006 and 0.0015 and 0.0024 | 81.9258 and 91.2824 and 94.0371 | 16.4661 and 22.6942 and 32.7859 | 10.3137 and 9.575 and 9.146 | 4.106 and 4.258 and 6.77 | 0.4436 and 0.7059 and 0.3756 | Avg. Tm (TGR [5]; TGR + 100 µM compound): 73.8333; Avg. Tm, + 500 µM NADPH (TGR [5]; TGR + 100 µM compound + 500 µM NADPH): 70; Tm, replicate 1-3, + 500 µM NADPH (TGR [5]; TGR + 100 µM compound + 500 µM NADPH, single replicates, in °C (unit assumed)): 69 and 70 and 71; Tm, replicate 1-3 (TGR [5]; TGR + 100 µM compound, single replicates): 73.5 and 74 (2×); LD50 ex vivo S. japonicum adult (S. japonicum adult worms; 48 h exposure): 25.8 ± 1.87 µM; viability at 5 µM (S. japonicum adult worms; Schistosoma japonicum, S. japonicum adult worms, 48 hr, Conc. 5 µM): 70.6%; viability at 15 µM (S. japonicum adult worms; Schistosoma japonicum, S. japonicum adult worms, 48 hr, Conc. 15 µM): 60.8%; viability at 30 µM (S. japonicum adult worms; Schistosoma japonicum, S. japonicum adult worms, 48 hr, Conc. 30 µM): 43.4%
